Twelve molecules from ChEMBL document CHEMBL1201862, “PubChem BioAssay data set” (2004) can be followed below.

As a reminder, the GI50 is the concentration giving 50% growth inhibition.

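1) Cells in 96-well plates. 2) Compound, 48 h, 5 concentrations. 3) Linear interpolation between surrounding doses. 4) Unreached endpoint = highest concentration. GI50 = concentration required for 50% inhibition of growth.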 Active and inactive are the calls of the source. No stated cut-off is given here; in the data, active = GI50 up to about 1.1 µM and inactive = higher. Bounds are passed on as bounds.

Common to all, as to experiment: DTP human tumour cell line panel, 48 h
Test [1] relates to NCI-H522.
Test [2] relates to NCI-H23.
The subject of test [3] is A498.
In test [4] the test system is PC-3.
The test system of test [5] is COLO 205.
Test [6] concerns MDA-MB-435.
For test [7], the system named is SN12C.
The test system of test [8] is NCI-H226.
Test [9] relates to MCF7.
For test [10], the system named is DU-145.
In test [11] the test system is SR.
The subject of test [12] is SK-MEL-2.
Test [13] relates to HCT-15.
Test [14] has as its system NCI/ADR-RES.
Test [15] concerns SW-620.
Test [16] concerns EKVX.
Test [17] deals with LOX IMVI.
Test [18] deals with MDA-MB-231.
The test system of test [19] is OVCAR-4.
Test [20] concerns DLD-1.

On to `COc1cc2c(/C=C3/C(=O)Nc4ccccc43)c(Cl)n(Cc3ccc(Cl)cc3)c2cc1C`, for which the GI50 was 0.343 µM (active) in [1]; 0.24 µM (active) in test [2]; 0.733 µM (active) in test [3]; 0.608 µM (active) in [4]; 0.256 µM (active) in test [5]; 0.193 µM (active) in test [6]. Besides, the GI50 is 0.226 µM (active) in test [7]; 0.336 µM (active) in test [8]; 0.491 µM (active) in test [9]; 0.306 µM (active) in test [10]; 0.209 µM (active) in [11]; 1.16 µM (inactive) in [12]. Also, the 50% growth inhibitory concentration (GI50) was 0.242 µM in [13]; 0.225 µM (active) in test [14]; 0.472 µM (active) in test [15]; 1.18 µM (inactive) in test [16]; 0.344 µM (active) in [17]; 0.216 µM (active) in test [18]. Moreover, the GI50 in test [19] was 0.632 µM (active).
Take `COC(=O)C1C(O)C(C)C(O)C(C)(O)C=C(C)C2=C3C(=C(C)C(=O)c4c(O)c(c(C)c(OC(C)=O)c43)NC(=O)C(C)=C/C=C\C(C)(O)C(O)C(C)C1O)OCO2` (centres undefined): the GI50 in test [1] is 88.3 µM (inactive); in test [2], > 100 µM (inactive); in test [3] it was > 100 µM (inactive); in test [4], 32.5 µM (inactive); in test [5], 24.4 µM (inactive); in test [6], 33.9 µM (inactive). For the same molecule, the GI50 in test [7] was 94 µM (inactive); in test [8] it was > 100 µM (inactive); in [9], 41.3 µM (inactive); in test [10], > 100 µM (inactive); in [11], 49.4 µM (inactive); in test [12], 22.9 µM (inactive). Moreover, the GI50 in [13] was more than 100 µM; in test [14], > 100 µM (inactive); in test [15] it was 40.8 µM (inactive); in test [16], > 100 µM (inactive); in [17], 35.3 µM (inactive); in test [18], 32.5 µM (inactive). The GI50 in [19] was 56.4 µM (inactive).
Turning to `CCOc1cc(NC(C)=O)ccc1C(=O)NN1C(=O)CSC1c1ccc(O)c(OC)c1` (centres undefined), the GI50 in test [1] is 37.8 µM (inactive); in test [2] it was 61.7 µM (inactive); in test [3], > 100 µM (inactive); in test [4], 44 µM (inactive); in test [5], 33.1 µM (inactive); in test [6], 46.2 µM (inactive). Moreover, the GI50 was > 100 µM (inactive) in [7]; 69.5 µM (inactive) in test [8]; 44.7 µM (inactive) in test [9]; > 100 µM (inactive) in [10]; 50.9 µM (inactive) in [11]; 49 µM (inactive) in [12]. In addition, the GI50 in test [13] is 40.8 µM; in [14], 30.8 µM (inactive); in test [15], 87.7 µM (inactive); in test [16] it was 42.7 µM (inactive); in [17] it was 87.3 µM (inactive); in [18] it was 53.8 µM (inactive). In addition, the GI50 in test [19] was 39.9 µM (inactive).
For `c1ccc2c(c1)Cc1c(Cc3csc4ccccc34)ccc3cccc-2c13`, the GI50 was 41.3 µM (inactive) in test [1]; > 100 µM (inactive) in [2]; > 100 µM (inactive) in [5]; > 100 µM (inactive) in [7]; > 100 µM (inactive) in test [12]; more than 100 µM in test [13]. In addition, the GI50 in test [20] is > 100 µM (inactive); in test [15] it was > 100 µM (inactive); in test [16] it was > 100 µM (inactive); in test [19] it was 54 µM (inactive).
As for `CC1CC[C@@]2(OC1)OC1C[C@H]3[C@@H]4CC[C@H]5CC(OC6OC(CO)C(O)C(OC7OC(CO)C(OC8OC(CO)C(O)C(OC9OC(CO)C(O)C(O)C9O)C8OC8OC(CO)C(O)C(O)C8O)C(O)C7O)C6O)[C@H](O)CC5(C)[C@H]4CCC3(C)C1[C@@H]2C` (some centres undefined), the GI50 in test [1] is 1.66 µM (inactive); in [2], 5.31 µM (inactive); in [3], 1.06 µM (active); in [4] it was 1.29 µM (inactive); in test [5], 1.95 µM (inactive); in test [6], 6.59 µM (inactive). Also, the GI50 in test [7] was 2.49 µM (inactive); in [8] it was 6.53 µM (inactive); in [9] it was 1.66 µM (inactive); in [10], 5.47 µM (inactive); in [11] it was 1.11 µM (active); in [12], 3.27 µM (inactive). Further, the 50% growth inhibitory concentration (GI50) in test [13] is 9.48 µM; in [14] it was 4.72 µM (inactive); in test [15], 2.22 µM (inactive); in test [16], 4.15 µM (inactive); in test [17] it was 2.29 µM (inactive); in test [18], 1.31 µM (inactive). Besides, the GI50 in test [19] was 2.4 µM (inactive).
Consider `CCc1cccc(C)c1NC(=O)CCc1n[nH]c(=S)o1`, for which the GI50 was > 100 µM (inactive) in test [1]; > 100 µM (inactive) in test [2]; > 100 µM (inactive) in [3]; 44.6 µM (inactive) in test [5]; > 100 µM (inactive) in test [7]; > 100 µM (inactive) in [8]. Also, the concentration for 50% growth inhibition (GI50) is 55.1 µM in [13]; 44.4 µM (inactive) in test [20]; 13.3 µM (inactive) in test [15]; > 100 µM (inactive) in [16]; > 100 µM (inactive) in [19].
In the case of `C(=N\Nc1ccc(-c2nc3ccccc3[nH]2)cc1)/c1c(-c2ccc(Cc3ccccc3)cc2)[nH]c2ccccc12`, the GI50 is 9.08 µM (inactive) in test [1]; 8.79 µM (inactive) in test [2]; 11.4 µM (inactive) in [3]; 4.86 µM (inactive) in [4]; 3.94 µM (inactive) in test [5]; 3.23 µM (inactive) in test [6]. In addition, the GI50 is 18.6 µM (inactive) in [7]; > 94.4 µM (inactive) in test [8]; 5.06 µM (inactive) in [9]; 16.8 µM (inactive) in test [10]; 2.15 µM (inactive) in [11]; 3.56 µM (inactive) in [12]. The concentration for 50% growth inhibition (GI50) in test [13] is 4.07 µM; in [14], 5.31 µM (inactive); in test [15], 9.98 µM (inactive); in [16], 20.4 µM (inactive); in test [17], 4.05 µM (inactive); in [18] it was 11.5 µM (inactive). The GI50 in [19] was 14.1 µM (inactive).
For the molecule `Cc1cccc(C(C)(C)C)c1NC(=O)CCc1n[nH]c(=S)o1`, the GI50 in test [1] was > 100 µM (inactive); in test [2], > 100 µM (inactive); in test [3] it was > 100 µM (inactive); in test [5], 16.6 µM (inactive); in [7] it was > 100 µM (inactive); in [8], 0.3 µM (active). Also, the GI50 in test [13] is 21.7 µM; in test [20] it was 98.4 µM (inactive); in test [15] it was 15.9 µM (inactive); in test [16], > 100 µM (inactive); in [19], > 100 µM (inactive).
For the molecule `COC(=O)c1cc(C#N)[nH]c1-c1ccc(Br)s1`, the GI50 was 7.03 µM (inactive) in test [1]; 5.08 µM (inactive) in [2]; 1.03 µM (active) in test [3]; 1.75 µM (inactive) in test [4]; 14.1 µM (inactive) in test [5]; 13.5 µM (inactive) in test [6]. For the same molecule, the GI50 in test [7] was 13.1 µM (inactive); in test [8], 8.55 µM (inactive); in [9] it was 0.459 µM (active); in test [10] it was 10.8 µM (inactive); in test [11], 16.8 µM (inactive); in test [12], 6.55 µM (inactive). In addition, the GI50 in test [13] was 13.7 µM; in test [14], 10.3 µM (inactive); in [15], 15.9 µM (inactive); in test [16], 3.97 µM (inactive); in test [17] it was 9.14 µM (inactive); in [18] it was 14.5 µM (inactive). Further, the GI50 in test [19] was 10.1 µM (inactive).
Consider `CCc1nc(N)nc(N)c1-c1ccc(NCCc2ccccc2)c([N+](=O)[O-])c1`, for which the GI50 in test [1] is 0.56 µM (active); in test [2], 0.392 µM (active); in [3] it was 3.05 µM (inactive); in [4] it was 0.272 µM (active); in test [5] it was 1.11 µM (active); in test [6], 0.389 µM (active). Further, the GI50 in test [7] is 1.34 µM (inactive); in test [8], 6.05 µM (inactive); in [9], 1.13 µM (inactive); in test [10] it was 1.14 µM (inactive); in test [11], 0.215 µM (active); in test [12], 8.71 µM (inactive). In addition, the GI50 is 0.108 µM in test [13]; 0.716 µM (active) in test [14]; 0.163 µM (active) in test [15]; 3.34 µM (inactive) in [16]; 0.199 µM (active) in [17]; 8.65 µM (inactive) in [18]. In addition, in test [19], the GI50 is 3.24 µM (inactive).
Take `COc1ccc(/C=C/c2cc(OC)c(OC(C)=O)c(OC)c2)cc1`: the GI50 in [1] is 19.5 µM (inactive); in [2] it was 20.7 µM (inactive); in test [5] it was 68.1 µM (inactive); in [7], 24.3 µM (inactive); in [8] it was 21.6 µM (inactive); in test [12] it was 37.2 µM (inactive). The GI50 in test [13] was 26.2 µM; in test [20], 29.9 µM (inactive); in test [16] it was 28.1 µM (inactive); in [19] it was 45.9 µM (inactive).
As for `O=c1cc(-c2ccc(O)cc2)oc2cc(O[C@@H]3O[C@H](CO)[C@@H](O)[C@H](O)[C@H]3O)cc(O)c12` [APIGETRIN], the GI50 in [1] is 31.1 µM (inactive); in [2] it was 50.8 µM (inactive); in test [3] it was 67.1 µM (inactive); in [4], 33.2 µM (inactive); in test [5] it was > 100 µM (inactive); in test [6] it was 71.6 µM (inactive). Further, the GI50 is > 100 µM (inactive) in test [7]; 26.7 µM (inactive) in test [8]; > 100 µM (inactive) in test [9]; 58.3 µM (inactive) in [10]; 0.0752 µM (active) in test [11]; 61.5 µM (inactive) in test [12]. Also, the GI50 was 16.6 µM in test [13]; 42 µM (inactive) in test [14]; 72.9 µM (inactive) in test [15]; > 100 µM (inactive) in test [16]; 33.1 µM (inactive) in test [17]; 86.1 µM (inactive) in test [18]. Besides, the GI50 in test [19] is 28.2 µM (inactive).
